Consider one substance from patent US9889184B2 (priority 2008, dated 2018).

Where two headings read alike, the source gives them in different places.

One test concerns Aspergillus nidulans. Briefly: Growth inhibition by NaD1 (microtitre OD595). In kind it is cell-based. The source says: (§1) Antifungal activity against Fusarium oxysporum f. sp. vasinfectum (Fov, Australian isolate VCG01111 isolated from cotton; from Wayne O'Neill, Farming Systems Institute, DPI, Queensland, Australia), Thielaviopsis basicola (gift from David Nehl, NSW DPI, Narrabri, Australia), Verticillium dahliae (from Helen McFadden, CSIRO Plant Industry, Black Mountain, Australia), Leptosphaeria maculans (from Barbara Howlett, University of Melbourne, Victoria, Australia) and Aspergillus nidulans (from Michael Hynes, University of Melbourne) was assessed essentially as described in Broekaert et al, 1990. Spores were isolated from sporulating cultures growing in either half-strength potato dextrose broth (PDB) (Fov and T. basicola), Czapeck-Dox Broth (V. dahliae) (Difco Laboratories) or 10% (v/v) clarified V8 medium (L. maculans and A. nidulans) by filtration through sterile muslin. Spore concentrations were determined using a hemocytometer and adjusted to 5×10^4 spores/mL in the appropriate growth medium. Spore suspensions (80 μL) were added to the wells of sterile 96-well flat-bottomed microtitre plates along with 20 μL of filter-sterilized (0.22 μm syringe filter; Millipore) NaD1, or water to give final protein concentrations of 0-10 μM. The plates were shaken briefly and placed in the dark at 25° C. without shaking until the optical density at 595 nm of the water control reached approximately 0.2 (24-72 h depending on growth rate). Hyphal growth was estimated by measuring the optical density at 595 nm using a microtitre plate reader (SpectraMax Pro M2; Molecular Devices). Each test was performed in quadruplicate.

A further test relates to Leptosphaeria maculans. The test can be described thus: Growth inhibition by NaD1 (microtitre OD595). In kind it is cell-based.
Excerpt: as §1

Another test concerns Thielaviopsis basicola. Briefly: Growth inhibition by NaD1 (microtitre OD595). In kind it is cell-based.
Excerpt: as §1

The next test concerns Verticillium dahliae. Briefly: Growth inhibition by NaD1 (microtitre OD595). In kind it is cell-based.
Excerpt: as §1

A further test relates to Fov. Briefly: Effect of metal ions on NaD1 activity against Fov. In kind it is cell-based, Fusarium oxysporum f. sp. vasinfectum. The following applies: NaD1 10 μM, growth of Fov.
Excerpt: as §1
The activity of NaD1 against Fov was examined as described with varying concentrations of CaCl2 (0.1, 0.2, 0.5, 1.0 and 2.0 μM) or MgCl2 (1.0, 2.0, 10, 20 and 50 μM) present in the medium to determine the effects of divalent cations on NaD1 activity.

For test [1], the system named is Fov hyphae. The test can be described thus: Uptake of FITC-labeled dextrans into NaD1-treated hyphae. In kind it is cell-based, Fusarium oxysporum f. sp. vasinfectum. On the procedure:
The uptake of FITC-labeled dextran following NaD1 treatment of fungal hyphae was also studied. Fov hyphae were grown as described above and incubated with NaD1 (final concentration 0.1, 2, 10 or 50 μM) or an equivalent volume of water for 2 h at RT with gentle agitation. Hyphae were washed twice for 10 min with half-strength PDB to remove excess NaD1 before FITC dextrans of either 4 kDa (FD-4, Sigma-Aldrich) or 10 kDa (FD-10, Sigma-Aldrich) were added to a final concentration of 1 μM. Hyphae were incubated for a further 30 min at RT and then washed twice with half strength PDB to remove excess dextrans. Fluorescence microscopy was used to visualize hyphae as described for SYTOX® green. A second assay was performed under the same conditions except the dextrans were added at the same time as NaD1.

The subject of test [2] is Fov hyphae. Briefly: Detection of reactive oxygen species (DHR123 oxidation). In kind it is cell-based, Fusarium oxysporum f. sp. vasinfectum. On the procedure:
Fov hyphae were grown as described herein and incubated with 5 μg/mL dihydrorhodamine 123 (Sigma-Aldrich) for 2 h followed by extensive washing with growth medium. […] Fluorescence was then measured on a fluorimeter with excitation and emission wavelengths of 488 nm and 538 nm respectively or visualized by fluorescence microscopy. The experiment was repeated either in the presence of ascorbic acid (10 mM) or 2,2,6,6-tetramethylpiperidine-N-oxyl (TEMPO, 3 mM).

The next test has as its system Fusarium graminearum. In kind it is cell-based.
The next test relates to Fov infection. To be noted: transgenic cotton expressing NaD1 vs untransformed parent variety, field trials; cited from earlier work.

Usually IC50 stands for the concentration that inhibits the measured activity by half. Read a low IC50 as greater potency in that assay.

On to “NaD1: plant defensin isolated from floral tissue of Nicotiana alata (SEQ ID NO:12) (RECKTESNTFPGICITKPPCRKACISEKFTDGHCSKILRRCLCTKPC; Nicotiana alata (NaD1))”, for which the growth inhibited result was “approximately 65%” in the test on Aspergillus nidulans (1 μM NaD1, A. nidulans); “more than 80%” with Aspergillus nidulans (5 μM NaD1, A. nidulans); “more than 80%” in the test on Leptosphaeria maculans (5 μM NaD1, L. maculans); “approximately 65%” in the test on Thielaviopsis basicola (1 μM NaD1, T. basicola); “more than 80%” in the test with Thielaviopsis basicola (5 μM NaD1, T. basicola); “approximately 65%” in the test on Verticillium dahliae (1 μM NaD1, V. dahliae). Moreover, the growth inhibited entry in the test on Verticillium dahliae (5 μM NaD1, V. dahliae) is reported as “more than 80%”. Further, the half-maximal inhibitory concentration (IC50) in the test with Aspergillus nidulans (Aspergillus nidulans) worked out at 800 nM; with Leptosphaeria maculans (Leptosphaeria maculans), 800 nM; in the test on Thielaviopsis basicola (Thielaviopsis basicola), 800 nM; in the test with Verticillium dahliae (Verticillium dahliae), 750 nM. In addition, the growth retarded with Leptosphaeria maculans (1 μM NaD1, L. maculans) came to 50%. The “Ca2+ more antagonistic than Mg2+” value in the test with Fov is recorded as “greater than 20 times”. The “CaCl2 concentration giving complete inactivation of NaD1” value in the test with Fov is recorded as less than 2 mM. Further, the “MgCl2 concentration giving complete inactivation of NaD1” value with Fov was 50 mM. The “entry of 10 kDa FITC-dextran (23 Å) into NaD1-treated hyphae” value with Fov hyphae [1] (even at very high concentrations of NaD1) is “excluded”. In addition, the “entry of 4 kDa FITC-dextran (14 Å) into NaD1-treated hyphae” value in the test with Fov hyphae [1] (same NaD1 concentration that led to SYTOX green uptake) is “entered hyphae”. Besides, the “ROS production, DHR123 fluorescence” value in the test on Fov hyphae [2] (NaD1 0.1, 2 and 10 μM or 10 μM NaD1R&A) was “concentration-dependent increase in fluorescence”. Besides, the “DHR123 oxidation by NaD1 in the presence of ROS scavengers” value in the test with Fov hyphae [2] (ascorbic acid or TEMPO present) is “did not alter the level of fluorescence”. The “toxicity with Fusarium graminearum” value in the test with Fusarium graminearum (0.5 μM NaD1 combined with 0.5 μM/mL NaCys2, FIG. 3B) is recorded as “significantly enhanced”; in the test on Fusarium graminearum (0.5 μM NaD1 in the absence of NaCys2, FIG. 3B) it was “very low”. Besides, in the test with Fov infection, the “protection from the pathological effects of Fov infection” value is “significantly protected”.
